{"source": "ChEMBL document CHEMBL4145534", "about": "“Computer-aided insights into receptor-ligand interaction for novel 5-arylhydantoin derivatives as serotonin 5-HT7 receptor agents with antidepressant activity” (Eur J Med Chem, 2018)", "format_in_all_cases": "functional", "key": {"[1]": {"test_system": "Mus musculus", "test": "Antidepressant like activity in Swiss albino mouse assessed as immobility time at 10 mg/kg, ip administered 30 mins prior to test and measured last 4 mins of 6 mins test by forced swimming test (reference value: 162.71 +/- 6.8 secs)"}, "[2]": {"test_system": "Mus musculus", "test": "Antidepressant like activity in Swiss albino mouse assessed as immobility time at 5 mg/kg, ip administered 30 mins prior to test and measured last 4 mins of 6 mins test by forced swimming test (reference value: 162.71 +/- 6.8 secs)"}, "[3]": {"test_system": "Mus musculus", "test": "Antidepressant like activity in Swiss albino mouse assessed as immobility time at 20 mg/kg, ip administered 30 mins prior to test and measured last 4 mins of 6 mins test by forced swimming test (reference value: 162.71 +/- 6.8 secs)"}}, "data": [{"compound": "CN(C)CCCN1c2ccccc2CCc2ccccc21", "note": "[IMIPRAMINE]", "values": [{"measurement": "Time", "setting": "[1]", "result": 119.63, "unit": "s"}, {"measurement": "Time", "setting": "[2]", "result": 170.42, "unit": "s"}, {"measurement": "Time", "setting": "[3]", "result": 77.81, "unit": "s"}]}]}
